# Data taken from patent US7524834B2, “Sterile powders, formulations, and methods for producing the same” (AstraZeneca AB, priority 1997, dated 2009).
# Columns and labels:
# spore suspension = assay: Decimal reduction time of spores in inoculated glucocorticosteroids at 110° C. (Example 7); settings: for D110 value: Heating at 110° C., spore suspension different from Example 6
# Description: 1 g of micronized budesonide, prednisolone and beclomethasone dipropionate and 0.5 g of rofleponide were inoculated with a different spore suspension to the one used in Example 6.
# The samples were heat treated at 110° C. A sample was withdrawn after various heating times. The number of spores/g were determined by a pour plate technique according to US Pharmacopoeia 23/NF18, 1995, pp. 1681-1686, especially p. 1684.
# From the number of spores before and after heat treatment the log reduction of spores and decimal reduction time (time needed at a specified temperature to reduce the number of microorganisms with one log) was calculated.
# Bacillus subtilis spores = assay: Spore kill kinetics in inoculated micronized budesonide at 100, 110, 120° C., pour plate (Example 6)
# Description: 5 g of micronized budesonide was inoculated with approximately 2 ml of a spore suspension of Bacillus subtilis.
# The substance and the spore suspension were mixed and dried for approximately 3 hours at 55° C. The inoculated and dried budesonide was mixed with 20-40 g of non-inoculated micronized budesonide.
# 5 g portions of this sample were heat treated at 100° C., 110° C. or 120° C. in a Heraeus ST 5060 heating apparatus. A 1 g sample was withdrawn after various heating times at the respective heating temperatures. Each such 1 g sample was transferred to 10 ml of dilution medium pH 7.2. Appropriate dilutions were made in 0.1% Peptone Aqueous solution and the number of spores/g were determined by a pour plate technique according to US Pharmacopoeia 23/NF18, 1995, pp. 1681-1686, especially p. 1684.
# The number of spores before heat treatment were determined in samples heated at 80° C. for 10 min in order to kill the vegetative cells.
# The results are shown in Table 6. where the DT value is the amount of time in minutes required to obtain a log 1 reduction in the number of spores before and after heat treatment at the temperature T (in ° C.).
# B. subtilis ATCC 6633 = assay: Heat resistance of microorganisms inoculated on budesonide powder (Example 3); settings: for Microorganism population, After: after 110° C. for 3 hours and 10 min; for Microorganism population, Before: before heat treatment
# Description: (§1) Tests were performed to evaluate the heat resistance of various naturally occurring microorganisms.
# (§2) Samples of 0.5 g of budesonide powder were each inoculated with approximately 10^2-10^3 viable ATCC microorganisms in 120 ml open-ended polypropylene container. Each sample was subjected to a temperature of 110° C. for 3 hours and 10 min. The microorganism population of the samples was measured before and after heat treatment and the results obtained are shown below in Table 3.
# S. epidermidis = assay: as above
# Description: as §1, §2
# C. albicans = assay: as above
# Description: as §1, §2
# Salmonella typhi = assay: as above
# Description: as §1, §2
# A. niger = assay: as above
# Description: as §1, §2
# C. sporegenes = assay: as above
# Description: as §1, §2
# Ps. Aeruginosa = assay: as above
# Description: as §1, §2
# M. luteus = assay: as above
# Description: as §1, §2
# E. coli = assay: as above
# Description: as §1, §2
# [1] = tested on: Bacillus subtilis (globigii) spores; assay: Heat sterilization at 110° C. of powder inoculated with spore suspension (Example 2); settings: for Spore population, After / Spore population, Before: 0.5 g sample; for Spore population, After: after 110° C. for 3 hours and 10 min; for Spore population, Before: before heat treatment; for Spore log reduction: 110° C. for 3 hours and 10 min
# Description: Samples of 0.5 g of budesonide and of 0.5 g of calcium stearate were each inoculated with 0.1 ml of a Steris Bacillus subtilis (globigii) (Lot#LG126B) spore suspension containing 1.5×10^7 spores. Each sample was subjected to a temperature of 110° C. for 3 hours and 10 min in a Baxter Constant Temperature Oven using the same technique as in Example 1. The spore population of the samples was measured and the results obtained are shown below in Table 2.
# [2] = 100° C. series, before heat treatment (80° C. 10 min)
# [3] = 110° C. series, before heat treatment (80° C. 10 min)
# [4] = 120° C. series, before heat treatment (80° C. 10 min)
# [5] = B. subtilis ATCC 6633, low inoculum
# [6] = after 110° C. for 3 hours and 10 min
molecule,measurement,setting,value
"CCC[C@@H]1O[C@@H]2C[C@H]3[C@@H]4C[C@H](F)C5=CC(=O)CC[C@]5(C)[C@@]4(F)[C@@H](O)C[C@]3(C)[C@]2(C(=O)CO)O1 [Rofleponide, rofleponide]",D110 value,spore suspension,9.8 min
same,Spore kill,"spore suspension; full 1.0 g sample, cycle times ≧5 minutes at 110° C., D110 could not be calculated",total kill
"CCC(=O)OCC(=O)[C@@]1(OC(=O)CC)[C@@H](C)C[C@H]2[C@@H]3CCC4=CC(=O)C=C[C@]4(C)[C@@]3(Cl)[C@@H](O)C[C@@]21C [Beclomethasone dipropionate, beclomethasone dipropionate]",D110 value,spore suspension,72.7 min
"CCCC1O[C@@H]2C[C@H]3[C@@H]4CCC5=CC(=O)C=C[C@]5(C)[C@H]4[C@@H](O)C[C@]3(C)[C@]2(C(=O)CO)O1 (stereo partly shown) [Budesonide, budesonide]",D110 value,spore suspension,41 min
same,D100 (time for log 1 reduction in number of spores),Bacillus subtilis spores; 100° C.,D100 = 41.5 min; correlation coefficient = −0.0996 This means that it takes 6 × 41.5 minutes to obtain a log 6 reduction in the number of spores at a temperature of 100 °C
same,log spores/g,Bacillus subtilis spores; [2],6.81
same,spores/g,Bacillus subtilis spores; [2],6.5 × 10^6 spores/g
same,log spores/g,"Bacillus subtilis spores; 100° C., 15 min",3.68
same,spores/g,"Bacillus subtilis spores; 100° C., 15 min",4.8 × 10^3 spores/g
same,log spores/g,"Bacillus subtilis spores; 100° C., 45 min",2.85
same,spores/g,"Bacillus subtilis spores; 100° C., 45 min",7.1 × 10^2 spores/g
same,log spores/g,"Bacillus subtilis spores; 100° C., 75 min",2.23
same,spores/g,"Bacillus subtilis spores; 100° C., 75 min",1.7 × 10^2 spores/g
same,D110 (time for log 1 reduction in number of spores),Bacillus subtilis spores; 110° C.,D110 = 8.3 min; correlation coefficient = −0.995 This means that it takes 6 × 8.3 minutes to obtain a log 6 reduction in the number of spores at a temperature of 110 °C
same,log spores/g,Bacillus subtilis spores; [3],6.20
same,spores/g,Bacillus subtilis spores; [3],2 × 10^6 spores/g
same,log spores/g,"Bacillus subtilis spores; 110° C., 5 min",4.32
same,spores/g,"Bacillus subtilis spores; 110° C., 5 min",2.08 × 10^4 spores/g
same,log spores/g,"Bacillus subtilis spores; 110° C., 15 min",2.97
same,spores/g,"Bacillus subtilis spores; 110° C., 15 min",9.25 × 10^2 spores/g
same,log spores/g,"Bacillus subtilis spores; 110° C., 20 min",2.55
same,spores/g,"Bacillus subtilis spores; 110° C., 20 min",3.55 × 10^2 spores/g
same,D120 (time for log 1 reduction in number of spores),Bacillus subtilis spores; 120° C.,D120 = 4.1 min; correlation coefficient = −0.998 This means that it takes 6 × 4.1 minutes to obtain a log reduction in the number of spores at a temperature of 120 °C
same,log spores/g,Bacillus subtilis spores; [4],6.19
same,spores/g,Bacillus subtilis spores; [4],1.5 × 10^6 spores/g
same,log spores/g,"Bacillus subtilis spores; 120° C., 4 min",2.28
same,spores/g,"Bacillus subtilis spores; 120° C., 4 min",1.9 × 10^2 spores/g
same,log spores/g,"Bacillus subtilis spores; 120° C., 6 min",1.74
same,spores/g,"Bacillus subtilis spores; 120° C., 6 min",5.5 × 10^1 spores/g
same,log spores/g,"Bacillus subtilis spores; 120° C., 8 min",1.30
same,spores/g,"Bacillus subtilis spores; 120° C., 8 min",2 × 10^1 spores/g
same,"Microorganism population, After","B. subtilis ATCC 6633; B. subtilis ATCC 6633, high inoculum, singular bacillus species in 10^0 dilution plate",1^1
same,"Microorganism population, Before","B. subtilis ATCC 6633; B. subtilis ATCC 6633, high inoculum",1.2 × 10^5
same,"Microorganism population, After",B. subtilis ATCC 6633; [5],0
same,"Microorganism population, Before",B. subtilis ATCC 6633; [5],300
same,"Microorganism population, After",S. epidermidis; [6],0
same,"Microorganism population, Before",S. epidermidis; before heat treatment,240
same,"Microorganism population, After",C. albicans; [6],0
same,"Microorganism population, Before",C. albicans; before heat treatment,780
same,"Microorganism population, After",Salmonella typhi; [6],0
same,"Microorganism population, Before",Salmonella typhi; before heat treatment,270
same,"Microorganism population, After",A. niger; [6],0
same,"Microorganism population, Before",A. niger; before heat treatment,260
same,"Microorganism population, After",C. sporegenes; [6],0
same,"Microorganism population, Before",C. sporegenes; before heat treatment,160
same,"Microorganism population, After",Ps. Aeruginosa; [6],0
same,"Microorganism population, Before",Ps. Aeruginosa; before heat treatment,350
same,"Microorganism population, After",M. luteus; [6],0
same,"Microorganism population, Before",M. luteus; before heat treatment,300
same,"Microorganism population, After",E. coli; [6],0
same,"Microorganism population, Before",E. coli; before heat treatment,450
same,"Spore population, After",[1],<10 spores
same,"Spore population, Before",[1],1.5 × 10^7 spores
same,Spore log reduction,[1],greater than 6.2
"C[C@]12C=CC(=O)C=C1CC[C@@H]1[C@@H]2[C@@H](O)C[C@@]2(C)[C@H]1CC[C@]2(O)C(=O)CO [Prednisolone, prednisolone]",D110 value,spore suspension,73.8 min
calcium stearate,"Spore population, After",[1],3.3 × 10^6 spores
same,"Spore population, Before",[1],1.5 × 10^7 spores
same,Spore log reduction,[1],less than 0.7
